In brackets after ≈: the same amount, converted by molar mass. Some results are limits rather than exact numbers.

For the series the following is noted: buffer; pH 7.4; 200.0 µM.
One may read the solubility (kinetic) as the concentration staying in solution when a stock, usually in DMSO, is diluted into the medium. `CN1CCCC(OC(=O)c2cc(F)c(F)c(F)c2F)C1.Cl` (centres undefined): the kinetic solubility worked out at 45.4 µg/mL.

The compound `O=C1Nc2ccccc2Nc2ccc([N+](=O)[O-])cc21` yielded a kinetic solubility of 1.1 µg/mL (≈ 4.31 µM). The compound `O=C(c1c(F)cccc1F)N1CCCC1` had a solubility (kinetic) of more than 31.7 µg/mL. With `O=C1CC(C2CCCO2)C(=O)N1c1ccc(Cl)c(Cl)c1` (centres undefined), the solubility (kinetic) was more than 47.1 µg/mL.

Consider `COc1ccc(C(=O)CCC(=O)Nc2cccc(Cl)c2)cc1`, for which the solubility (kinetic) turned out to be 3.4 µg/mL (≈ 10.7 µM). Compound `CCOc1ccc(N2CC(C(=O)Nc3cc(S(=O)(=O)N4CCCCC4)ccc3C)CC2=O)cc1` (centres undefined) yielded a kinetic solubility of 1.3 µg/mL (≈ 2.68 µM). For `O=C(c1cc(S(=O)(=O)N2CCOCC2)ccc1F)N1CCc2ccccc21`, the kinetic solubility is more than 58.6 µg/mL. For `CN(C)c1ccc(C(=O)N=c2sccn2C)cc1[N+](=O)[O-]` the value was 1.4 µg/mL (≈ 4.57 µM); for `COC(=O)c1c(C)[nH]c(C=Nc2ccc(OC)cc2)c1C`, 30 µg/mL (≈ 105 µM); for `O=C(CCNC(=O)c1ccc(Cl)cc1)Nc1nc2ccccc2[nH]1`, 2.3 µg/mL (≈ 6.71 µM).

Consider `CNC(=O)c1cc(C(=O)c2ccc(Cl)cc2)c[nH]1`, for which the kinetic solubility is 10.5 µg/mL (≈ 40 µM). For `O=C1ON=C(c2cccc([N+](=O)[O-])c2)/C1=C/c1ccc(O)cc1` the value was more than 46.5 µg/mL; for `O=C(Nc1ccc(OCc2ccccc2)cc1)c1cccs1`, less than 0.7 µg/mL; for `O=C(CSCc1ccc(Cl)cc1)Nc1ccc(O)cc1C(=O)O`, more than 52.8 µg/mL.

In the case of `O=C(COc1ccc(F)cc1)N1CCCCCCC1`, the kinetic solubility came to 38.8 µg/mL (≈ 146 µM). The compound `CN1CCN(C(=O)/C(=C/c2ccco2)NC(=O)c2ccccc2)CC1` gave a solubility (kinetic) of 40.7 µg/mL (≈ 120 µM). The solubility kinetic values of the last two compounds are within 1.5-fold of each other.

`CC(C)N(C(=O)Nc1ccc2nsnc2c1)C(C)C` gave a solubility (kinetic) of more than 41.8 µg/mL. Turning to `COc1ccc(NS(=O)(=O)c2ccc3[nH]c(=O)[nH]c3c2)cc1OC`, the kinetic solubility is more than 52.4 µg/mL. `Cc1[nH]c2c(C)cccc2c1CC(=O)O`: the solubility (kinetic) is more than 30.5 µg/mL. Compound `COc1cc(CC(=O)OCC(=O)NCc2ccco2)cc(OC)c1OC` displayed a kinetic solubility of more than 54.5 µg/mL. For `O=S(=O)(c1ccccc1)N1CCc2ccccc21`, the kinetic solubility amounted to 2 µg/mL (≈ 7.71 µM). Consider `CC#CC[N+](C)(C)CCCCCCCC.[Br-]`, for which the kinetic solubility was more than 43.5 µg/mL.

Regarding `O=C(NCc1ccc2c(c1)OCO2)c1ccccc1Cl`, the kinetic solubility was 40.8 µg/mL (≈ 141 µM). As for `O=[N+]([O-])c1cccc(NC(=S)N2CCN(c3ccccn3)CC2)c1`, the solubility (kinetic) is 1.2 µg/mL (≈ 3.49 µM). In the case of `COc1ccc2[nH]c3c(c2c1)CC(C)NC3=O` (centres undefined), the solubility (kinetic) came to 33.3 µg/mL (≈ 145 µM).

`CCNc1nc(NC(C)(C)C)nc(SC)n1` had a kinetic solubility of 35.9 µg/mL (≈ 149 µM). With `O=C(COc1cccnc1[N+](=O)[O-])NCc1ccccc1`, the kinetic solubility is more than 43.1 µg/mL.

On to `CCOc1ccc(C(=O)N(CN2CCCC2=O)c2cccc(Cl)c2)cc1`, for which the solubility (kinetic) is more than 55.9 µg/mL. Consider `CCC(=O)Nc1ccc2c(c1)ncn2C`, for which the solubility (kinetic) was more than 30.5 µg/mL.

Turning to `Cc1ccc(/C(O)=C/c2nc3ccccc3oc2=O)cc1`, the kinetic solubility was 22.5 µg/mL (≈ 80.6 µM).

The compound `O=C1[C@@H]2CSCN2C(=O)CN1Cc1ccc(F)cc1` showed a kinetic solubility of more than 42 µg/mL. `C=C(Br)Cn1cnc2ccccc21` had a solubility (kinetic) of more than 35.6 µg/mL. For `CN(Cc1cnccn1)Cc1nc(Cc2ccccc2Cl)no1` the value was 43.9 µg/mL (≈ 133 µM); for `CCOC(=O)c1c(/N=C/C2=C(O)CCCC2=O)sc2c1CCCC2`, 3.6 µg/mL (≈ 10.4 µM); for `Cn1c(N)c(C(=O)COC(=O)c2cc(S(=O)(=O)N3CCOCC3)ccc2F)c(=O)n(C)c1=O`, more than 72.7 µg/mL. `Cc1cc2ccccn2c1C(=O)c1ccc(C#N)cc1` returned a solubility (kinetic) of 1.9 µg/mL (≈ 7.3 µM). The compound `O=C(CS(=O)c1ccc(F)cc1)N1CCOCC1` (centres undefined) came in with a solubility (kinetic) of more than 40.7 µg/mL.

Consider `CC(=O)Oc1ccccc1C(=O)N(C1CCCCC1)C1CCCCC1`, for which the kinetic solubility is 44.5 µg/mL (≈ 130 µM). To `O=C(CC(Cc1ccccc1)C(=O)O)Nc1ccc(F)cc1` (centres undefined) belongs more than 45.2 µg/mL.

`Cc1csc(=O)n1CCC(=O)OCc1nnc(-c2ccccc2Cl)o1` displayed a kinetic solubility of more than 57 µg/mL. Compound `O=C(OCN1C(=O)c2ccccc2C1=O)c1ccc(Cl)nc1` displayed a kinetic solubility of 14.3 µg/mL (≈ 45.2 µM). To `O=C(CSc1ccc(-c2ccncc2)nn1)N1CCCC1` belongs more than 45.1 µg/mL; to `CC(OC(=O)C1=COCCO1)C(=O)NC1CCCCC1C` (centres undefined), more than 44.6 µg/mL.

`CCOC(=S)SCC(=O)Nc1ncc(C)s1`: the kinetic solubility was determined as 40.1 µg/mL (≈ 145 µM). As to `Cc1nc(-c2ccc(NC(=O)C3CC3)cc2)cs1`, the solubility (kinetic) worked out at 13.3 µg/mL (≈ 51.5 µM). Regarding `O=C(CC(c1ccccc1)c1ccco1)N1CCCCC1` (centres undefined), the solubility (kinetic) was more than 42.5 µg/mL. In the case of `Cc1ccc(S(=O)(=O)CCSc2ccc(C(F)(F)F)cn2)cc1`, the kinetic solubility was less than 0.8 µg/mL. The compound `O=C(O)CSc1ccnc2cc(Cl)ccc12` came in with a kinetic solubility of more than 38.1 µg/mL. Consider `CCN1C(=O)CC(N2CCN(c3cccc(OC)c3)CC2)C1=O` (centres undefined), for which the solubility (kinetic) is more than 47.6 µg/mL. To `CC(C)CNS(=O)(=O)c1ccc(CCC(=O)NC2CCCCC2)cc1` belongs 10.5 µg/mL (≈ 28.6 µM); to `O=C(NCc1ccccn1)Nc1cccc([N+](=O)[O-])c1`, more than 40.8 µg/mL. `O=C(O)c1ccc(NC(=O)c2ccc(COc3ccccc3)o2)cc1` showed a kinetic solubility of more than 50.6 µg/mL. Consider `Cc1cccc2nc3ccccc3nc12`, for which the kinetic solubility was found to be 0.7 µg/mL (≈ 3.6 µM). On to `CCN(CC(=O)NCc1cccs1)C(=O)Cc1ccc(Cl)c(Cl)c1`, for which the kinetic solubility is more than 57.8 µg/mL. Regarding `CSc1ccc(/C=C/C(=O)N2CCN(c3ccccn3)CC2)cc1`, the kinetic solubility is 2.3 µg/mL (≈ 6.78 µM). `O=C(/C=C/c1ccccc1[N+](=O)[O-])OCC(=O)N1CCCC1`: the solubility (kinetic) is more than 45.6 µg/mL. In the case of `Cc1ccc([N+](=O)[O-])cc1N`, the solubility (kinetic) came out at 13.5 µg/mL (≈ 88.7 µM). Turning to `COc1cc(OC)c(OC)cc1/C=C1/C(=O)N=C(N)N1C`, the kinetic solubility worked out at 34.5 µg/mL (≈ 118 µM). Consider `CC1CCN(C2=NC(=O)/C(=C/c3cccc(O)c3)S2)CC1`, for which the kinetic solubility was 2.3 µg/mL (≈ 7.61 µM). The compound `COc1ccc(C(=O)NCC(=O)N/N=C(\C)c2ccco2)cc1OC` had a solubility (kinetic) of more than 51.8 µg/mL. `CC(=NCc1ccco1)c1c(O)n(-c2ccccc2C)c(=O)[nH]c1=O` registered a kinetic solubility of more than 50.9 µg/mL. As to `Cc1ccc(N2CC(C(=O)NC3CC3)CC2=O)cc1Cl` (centres undefined), the solubility (kinetic) was more than 43.9 µg/mL.

On to `CC(C)CN1CCN(Cc2ccccc2C(F)(F)F)CC1CCO` (centres undefined), for which the kinetic solubility worked out at 48.7 µg/mL (≈ 141 µM).

For the compound `C=CCNc1nc(N)c([N+](=O)[O-])c(N2CCCCCC2)n1`, the kinetic solubility was found to be 40.4 µg/mL (≈ 138 µM). The solubility kinetic values of the last two compounds are within 1.5-fold of each other. In the case of `CN(Cc1ccccc1)Cc1c(O)ccc2ccccc12`, the solubility (kinetic) was 26.6 µg/mL (≈ 95.9 µM).

On to `Cc1ccc(NC(=O)c2ccc(S(=O)(=O)N3CCOCC3)cc2)c(C)c1`, for which the kinetic solubility is 5.2 µg/mL (≈ 13.9 µM). Regarding `Cc1ccc(NC(=O)C(=O)NCCCN2CCCC2=O)c(C)c1`, the kinetic solubility was more than 47.6 µg/mL.

As to `COc1ccc(CC(=O)OCC(=O)NC2CC2)cc1`, the solubility (kinetic) was more than 39.5 µg/mL. In the case of `COc1cc2c(cc1OC)CN(CC(=O)Nc1cccc([N+](=O)[O-])c1)CC2`, the solubility (kinetic) worked out at 14.9 µg/mL (≈ 40.1 µM). Turning to `CCCc1nc2c(=O)n(C)c(=O)nc-2n(C)n1`, the kinetic solubility is more than 35.3 µg/mL. In turn, `Cc1cc(C)nc(Nc2ccccc2Cl)n1.Cl` gave a kinetic solubility of 10.4 µg/mL. The compound `Cc1cc(NC(=O)C2CC2)ccc1NC(=O)c1cccs1` had a kinetic solubility of 13.1 µg/mL (≈ 43.6 µM).

Take `COc1ccccc1C1CCN(Cc2ccc(Cl)cc2Cl)CC1`: the kinetic solubility was less than 0.8 µg/mL. To `NS(=O)(=O)c1ccc(NC(=O)Nc2ccc(S(N)(=O)=O)cc2)cc1` belongs 9.7 µg/mL (≈ 26.2 µM); to `NC(=O)C1(C(N)=O)OC1c1ccc(Cl)cc1Cl` (centres undefined), more than 41.3 µg/mL; to `COc1ccc(OC)c(COC(=O)c2cccc(S(=O)(=O)N3CCCCC3)c2)c1`, 10.1 µg/mL (≈ 24.1 µM). For the compound `Cc1ccccc1OCC(=O)OCC(=O)NCC1CCCCC1`, the kinetic solubility turned out to be 7.6 µg/mL (≈ 23.8 µM). In turn, `O=C(O)CNS(=O)(=O)Cc1ccccc1` showed a kinetic solubility of 29 µg/mL (≈ 126 µM). To `CC1CN(C(=S)NC(=O)c2ccccc2)CC(C)O1` (centres undefined) belongs more than 41.8 µg/mL. For `CN(C(=O)c1ccccc1)c1nccnc1C#N` the value was more than 35.7 µg/mL. `O=C(c1ccc([N+](=O)[O-])cc1)N1CCN(C(=O)c2cccnc2)CC1`: the kinetic solubility is more than 51.1 µg/mL. In the case of `CC(C)Cc1nnc(NC(=O)CCC(=O)NC2CC2)s1`, the solubility (kinetic) was more than 44.5 µg/mL.

With `O=C(CCCCl)NC(=S)Nc1ccc(N2CCOCC2)cc1`, the solubility (kinetic) amounted to 11.4 µg/mL (≈ 33.3 µM). Take `O=C(C(=O)N1CCN(c2ccccc2)CC1)c1c[nH]c2ccccc12`: the solubility (kinetic) was 2 µg/mL (≈ 6 µM). `CC(C)N1C(=O)N(c2cccc(Cl)c2)C(C)(O)CC1(C)C` (centres undefined) yielded a kinetic solubility of more than 46.6 µg/mL. `COc1ccc(CN(C)CC(=O)NC(C)c2ccccc2)cc1OC` (centres undefined): the solubility (kinetic) was more than 51.4 µg/mL.

`CN(Cc1ccccc1)S(=O)(=O)c1cn(C)cn1`: the solubility (kinetic) was more than 39.8 µg/mL.

The compound `CN1CCN(c2ncnc3nc[nH]c23)CC1` yielded a kinetic solubility of 28.8 µg/mL (≈ 132 µM). `Cc1ccc(N(CC(=O)N2CCOCC2)S(C)(=O)=O)cc1Cl` came in with a kinetic solubility of more than 52 µg/mL. `COc1ccc(CN(C(=O)c2cccs2)c2ccccc2)cc1` yielded a solubility (kinetic) of 8.8 µg/mL (≈ 27.2 µM). Compound `Nc1ccccc1-c1nc2ccccc2[nH]c1=O` came in with a kinetic solubility of 33.8 µg/mL (≈ 142 µM). Compound `CCN(CC)C(=O)COc1ccc2c3c(c(=O)oc2c1)CCCC3` gave a kinetic solubility of 48.1 µg/mL (≈ 146 µM).

In turn, `Cc1ccc(NC(=S)N2CCC(NC(=O)c3ccco3)CC2)cc1C` showed a kinetic solubility of 39.2 µg/mL (≈ 110 µM). The compound `CC(C)(C)NC(=O)c1cccnc1Sc1ccccc1` gave a solubility (kinetic) of more than 43 µg/mL. For `Cc1ccc(C2=NOC3(CC(=O)N(c4ccc(C)cc4)C3=O)C2)cc1` (centres undefined) the value was 12.6 µg/mL (≈ 37.7 µM); for `O=C(COC(=O)c1ccc2c(c1)OCO2)Nc1ccccc1Cl`, 3.5 µg/mL (≈ 10.5 µM). For `CC1CCCN(CC(=O)NC(=O)NC2CCCCC2)C1` (centres undefined) the value was more than 42.2 µg/mL; for `Oc1cccc(/C=N/NC(=S)Nc2cccnc2)c1O`, more than 43.2 µg/mL. For `c1ccc(C2CCC(N3CCN(c4ccccc4)CC3)CC2)cc1` (centres undefined) the value was 1.3 µg/mL (≈ 4.06 µM). `O=C(COC(=O)/C=C/c1ccc(F)cc1)NCc1cccs1` registered a kinetic solubility of 8.7 µg/mL (≈ 27.2 µM). To `CCCOc1ccc(N2CC(C(=O)NC3=NCCS3)CC2=O)cc1` (centres undefined) belongs 43.8 µg/mL (≈ 126 µM). For `CCc1ccc(-c2cc(C(=O)O)c3ccccc3n2)s1` the value was more than 42.5 µg/mL; for `CCOC(=O)c1c(C)[nH]c(C)c1S(=O)(=O)N1CCOCC1`, more than 47.5 µg/mL; for `NS(=O)(=O)c1ccc(N2CCOCC2)c(C(=O)NCc2cccs2)c1`, more than 57.2 µg/mL.

The values are drawn from PubChem BioAssay AID1996.
